Tests used:
[1] = test system: carrageenan-induced joint pain; test: Carrageenan-induced knee arthritis, joint pain (incapacitance test); type: in vivo, rat
Protocol: (§1) The activity of MEN16132, icatibant and cortisones was measured in an experimental model of arthritis induced by intra-articular injection of carrageenan which causes a strong inflammatory effect. […] The weight imbalance on the two weight-bearing paws, evaluated in a non-invasive way with the incapacitance test, measures the pain resulting from the joint inflammation. The diameter of the knee joint was also measured to measure the oedema.

[2] = test system: carrageenan-induced joint oedema; test: Carrageenan-induced knee arthritis, joint oedema (knee joint diameter); type: in vivo, rat; details: for reduction of carrageenan-induced knee swelling: hydrocortisone experiment, 100 μg i.a. 30 min before carrageenan
Protocol: as §1

[3] = test system: cell infiltration in the airways caused by LPS; test: LPS-induced airway inflammation, leucocytes in bronchoalveolar washing; type: in vivo, guinea pig; details: for reduction of the number of inflammatory cells in the airways after LPS: aerosol of a 1 mg/ml solution for 15 min
[4] = test system: human airway muscle cells; test: LPS-induced PGE2 release in cultures of human airway muscle cells; type: cell-based; details: LPS 1 μg/ml for 24 hours
Protocol: Similar findings were obtained with an in vitro model, in cultures of human airway muscle cells stimulated for 24 hours with 1 μg/ml LPS, where an approximately 16-fold increase in the production of PGE2 was observed compared with the control.

[5] = test system: symptomatic OA of the knee; details: cited from earlier work
[6] = 100 μg i.a. 30 min before carrageenan, 6 hours after the irritant
[7] = 100 μg/25 μl i.a. 30 min before carrageenan, maximum effect 6 hours

SMILES	reduction of joint pain [1, 6] [%]	reduction of carrageenan-induced oedema [2, 7] [%]	reduction of carrageenan-induced knee swelling [2] [%]	reduction of the number of inflammatory cells in the airways after LPS [3] [%]	reduction of LPS-induced release of PGE2 ([4]; 100 nM) [%]	reduction of joint pain ([1]; 10 μg i.a.) [%]	reduction of carrageenan-induced oedema ([2]; dexamethasone 10 μg i.a.)	reduction of cell infiltration in the airways after LPS ([3]; aerosol of a 0.03 mg/ml solution for 15 min) [%]	reduction of LPS-induced release of PGE2 ([4]; 1 μM) [%]	duration of analgesic response after the treatment ([5]; intra-articular infiltration, 3×500 μg injections one week apart)	intensity of pain in the knee ([5]; phase II, single intra-articular administration 90 μg/1 ml, versus placebo)
Cc1cc(C)c2cccc(OCc3c(Cl)ccc(S(=O)(=O)NC4(C(=O)N5CCN(C(=O)[C@@H](N)CCC[N+](C)(C)C)CC5)CCOCC4)c3Cl)c2n1 [MEN16132, (4-(S)-amino-5-(4-{4-[2,4-dichloro-3-(2,4-dimethyl-quinolin-8-yloxymethyl)-benzenesulphonylamino]-tetrahydro-pyran-4-carbonyl}-piperazin-1-yl)-5-oxo-pentyl]-trimethyl-ammonium]	38±4	45±3	42±3	6	39						
C[C@@H]1C[C@H]2[C@@H]3CCC4=CC(=O)C=C[C@]4(C)[C@@]3(F)[C@@H](O)C[C@]2(C)[C@@]1(O)C(=O)CO [dexamethasone, Dexamethasone]	44±3	57±3				14±4	inactive	8	45		
C[C@]12CCC(=O)C=C1CC[C@@H]1[C@@H]2[C@@H](O)C[C@@]2(C)[C@H]1CC[C@]2(O)C(=O)CO [hydrocortisone, Hydrocortisone]			−4±3								
NC(N)=NCCC[C@@H](N)C(=O)N[C@@H](CCCN=C(N)N)C(=O)N1CCC[C@H]1C(=O)N1C[C@H](O)C[C@H]1C(=O)NCC(=O)N[C@@H](Cc1cccs1)C(=O)N[C@@H](CO)C(=O)N1Cc2ccccc2C[C@@H]1C(=O)N1[C@H](C(=O)N[C@@H](CCCN=C(N)N)C(=O)O)C[C@@H]2CCCC[C@@H]21 [icatibant, H-D-Arg-Arg-Pro-Hyp-Gly-Thi-Ser-D-Tic-Oic-Arg-OH]		48±5		5	30					up to 3 months	reduced the intensity of pain in the knee to a greater extent than the placebo
